Measurements from ChEMBL document CHEMBL5465560, “Selectivity Literature for EUbOPEN Chemogenomic Library” (2024).

What was measured:
[1] = test system: Tyrosine-protein kinase ABL1 (Homo sapiens), P00519 [F317L]; assay: (§1) Selectivity interaction (KinomeScan (DiscoverX)) EUB0000045b ABL1
[2] = test system: Tyrosine-protein kinase ABL1 (Homo sapiens), P00519 [E255K]; assay: as §1
[3] = test system: Tyrosine-protein kinase ABL1 (Homo sapiens), P00519 [M351T]; assay: as §1
[4] = test system: Tyrosine-protein kinase ABL1 (Homo sapiens), P00519 [T315I]; assay: as §1
[5] = target: Tyrosine-protein kinase ABL1 (Homo sapiens, UniProt P00519); assay: as §1
[6] = test system: Tyrosine-protein kinase ABL1 (Homo sapiens), P00519 [F317I]; assay: as §1
[7] = test system: Tyrosine-protein kinase ABL1 (Homo sapiens), P00519 [Y253F]; assay: as §1
[8] = test system: Tyrosine-protein kinase ABL1 (Homo sapiens), P00519 [H396P]; assay: as §1
[9] = test system: Tyrosine-protein kinase ABL1 (Homo sapiens), P00519 [Q252H]; assay: as §1
[10] = target: 5-hydroxytryptamine receptor 6 (Homo sapiens) (UniProt P50406); assay: Selectivity interaction (GPCR panel (PDSP screen)) EUB0001079a HTR6; details: at 10 µM
[11] = target: Ephrin type-A receptor 7 (Homo sapiens) (UniProt Q15375); assay: Selectivity interaction (LanthaScreen Eu Kinase Binding Assay) EUB0001632a EPHA7; details: at 10 µM
[12] = target: Cyclin-dependent kinase 9 (Homo sapiens, UniProt P50750); details: at 10 µM
[13] = target: T1, Phosphatidylinositol 5-phosphate 4-kinase type-2 beta (Homo sapiens) (UniProt P78356); details: at 10 µM
T1 sequence (whole entry): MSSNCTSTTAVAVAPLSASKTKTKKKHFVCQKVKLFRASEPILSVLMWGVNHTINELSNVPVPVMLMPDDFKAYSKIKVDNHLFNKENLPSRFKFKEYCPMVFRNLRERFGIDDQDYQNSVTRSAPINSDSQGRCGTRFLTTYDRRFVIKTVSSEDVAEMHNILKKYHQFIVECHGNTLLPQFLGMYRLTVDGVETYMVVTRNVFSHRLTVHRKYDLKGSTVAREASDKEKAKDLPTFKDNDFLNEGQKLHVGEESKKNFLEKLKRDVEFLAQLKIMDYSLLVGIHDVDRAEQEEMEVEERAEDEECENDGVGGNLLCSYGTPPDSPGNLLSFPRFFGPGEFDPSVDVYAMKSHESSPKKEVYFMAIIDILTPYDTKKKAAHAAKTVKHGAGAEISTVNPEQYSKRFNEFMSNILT

[14] = target: Serine/threonine-protein kinase NIM1 (Homo sapiens, UniProt Q8IY84)
[15] = target: Casein kinase I isoform gamma-1 (Homo sapiens) (UniProt Q9HCP0); assay: Selectivity interaction (KinomeScan (DiscoverX)) EUB0001619a CSNK1G1; details: at 1 µM
[16] = target: Serine/threonine-protein kinase 32A (Homo sapiens) (UniProt Q8WU08); assay: Selectivity interaction (KinomeScan (DiscoverX)) EUB0001619a STK32A; details: at 1 µM
[17] = target: Cyclin-dependent kinase 8 (Homo sapiens, UniProt P49336); assay: Selectivity interaction (KinomeScan (DiscoverX)) EUB0001619a CDK8; details: at 1 µM
[18] = target: Myosin-IIIa (Homo sapiens) (UniProt Q8NEV4); assay: Selectivity interaction (KinomeScan (DiscoverX)) EUB0000618a MYO3A; details: at 10 µM
[19] = target: Ribosomal protein S6 kinase alpha-5 (Homo sapiens) (UniProt O75582); assay: Selectivity interaction (KinomeScan (DiscoverX)) EUB0000655a RPS6KA5; details: at 10 µM
[20] = target: Tyrosine-protein kinase receptor Tie-1 (Homo sapiens) (UniProt P35590); assay: Selectivity interaction (KinomeScan (DiscoverX)) EUB0000092b TIE1; details: at 10 µM
[21] = target: T2, Serine/threonine-protein kinase Nek1 (Homo sapiens) (UniProt Q96PY6); assay: Selectivity interaction (KinomeScan (DiscoverX)) EUB0000092b NEK1; details: at 10 µM
T2 sequence (whole entry): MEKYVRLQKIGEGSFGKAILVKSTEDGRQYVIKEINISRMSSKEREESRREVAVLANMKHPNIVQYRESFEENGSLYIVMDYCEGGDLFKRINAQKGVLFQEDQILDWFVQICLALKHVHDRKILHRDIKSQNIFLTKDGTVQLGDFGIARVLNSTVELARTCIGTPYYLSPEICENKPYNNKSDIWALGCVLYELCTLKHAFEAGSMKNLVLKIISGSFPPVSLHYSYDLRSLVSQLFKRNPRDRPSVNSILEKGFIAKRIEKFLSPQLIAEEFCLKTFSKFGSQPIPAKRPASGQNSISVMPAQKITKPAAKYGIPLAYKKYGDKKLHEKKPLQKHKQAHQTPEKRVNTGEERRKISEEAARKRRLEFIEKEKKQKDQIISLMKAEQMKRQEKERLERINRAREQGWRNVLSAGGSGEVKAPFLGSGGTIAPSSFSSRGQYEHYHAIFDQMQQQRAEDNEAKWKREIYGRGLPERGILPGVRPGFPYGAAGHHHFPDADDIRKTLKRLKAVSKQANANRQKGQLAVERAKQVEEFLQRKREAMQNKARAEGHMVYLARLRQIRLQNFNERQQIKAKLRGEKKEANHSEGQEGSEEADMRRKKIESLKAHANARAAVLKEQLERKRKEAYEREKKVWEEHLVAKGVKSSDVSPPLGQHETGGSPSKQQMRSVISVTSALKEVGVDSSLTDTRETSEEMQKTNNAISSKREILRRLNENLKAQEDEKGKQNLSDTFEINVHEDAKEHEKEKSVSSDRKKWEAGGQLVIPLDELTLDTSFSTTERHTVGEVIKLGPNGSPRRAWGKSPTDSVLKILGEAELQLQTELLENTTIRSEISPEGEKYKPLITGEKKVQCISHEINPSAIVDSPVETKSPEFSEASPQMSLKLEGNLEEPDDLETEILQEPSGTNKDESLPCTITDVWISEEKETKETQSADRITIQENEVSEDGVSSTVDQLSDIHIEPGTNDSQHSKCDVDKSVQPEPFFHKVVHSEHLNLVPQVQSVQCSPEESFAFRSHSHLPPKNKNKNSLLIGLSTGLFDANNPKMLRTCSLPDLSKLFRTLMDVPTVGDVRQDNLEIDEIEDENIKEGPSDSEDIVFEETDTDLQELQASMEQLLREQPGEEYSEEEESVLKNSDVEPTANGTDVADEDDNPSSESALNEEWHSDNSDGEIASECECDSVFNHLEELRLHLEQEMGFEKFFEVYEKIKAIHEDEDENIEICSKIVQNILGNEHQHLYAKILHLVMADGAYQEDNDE

Cyclin-dependent kinase 9, sequence (P50750 whole entry): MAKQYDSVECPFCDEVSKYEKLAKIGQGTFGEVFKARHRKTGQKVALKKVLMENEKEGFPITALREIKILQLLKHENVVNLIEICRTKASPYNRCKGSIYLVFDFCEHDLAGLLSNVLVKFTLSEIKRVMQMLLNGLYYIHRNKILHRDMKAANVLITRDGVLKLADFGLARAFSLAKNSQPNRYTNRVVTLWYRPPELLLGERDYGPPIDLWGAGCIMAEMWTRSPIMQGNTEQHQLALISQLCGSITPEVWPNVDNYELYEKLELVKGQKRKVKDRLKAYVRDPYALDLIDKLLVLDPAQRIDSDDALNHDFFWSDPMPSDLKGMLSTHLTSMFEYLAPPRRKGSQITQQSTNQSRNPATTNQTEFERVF
Tyrosine-protein kinase receptor Tie-1 (Homo sapiens), sequence (P35590 whole entry): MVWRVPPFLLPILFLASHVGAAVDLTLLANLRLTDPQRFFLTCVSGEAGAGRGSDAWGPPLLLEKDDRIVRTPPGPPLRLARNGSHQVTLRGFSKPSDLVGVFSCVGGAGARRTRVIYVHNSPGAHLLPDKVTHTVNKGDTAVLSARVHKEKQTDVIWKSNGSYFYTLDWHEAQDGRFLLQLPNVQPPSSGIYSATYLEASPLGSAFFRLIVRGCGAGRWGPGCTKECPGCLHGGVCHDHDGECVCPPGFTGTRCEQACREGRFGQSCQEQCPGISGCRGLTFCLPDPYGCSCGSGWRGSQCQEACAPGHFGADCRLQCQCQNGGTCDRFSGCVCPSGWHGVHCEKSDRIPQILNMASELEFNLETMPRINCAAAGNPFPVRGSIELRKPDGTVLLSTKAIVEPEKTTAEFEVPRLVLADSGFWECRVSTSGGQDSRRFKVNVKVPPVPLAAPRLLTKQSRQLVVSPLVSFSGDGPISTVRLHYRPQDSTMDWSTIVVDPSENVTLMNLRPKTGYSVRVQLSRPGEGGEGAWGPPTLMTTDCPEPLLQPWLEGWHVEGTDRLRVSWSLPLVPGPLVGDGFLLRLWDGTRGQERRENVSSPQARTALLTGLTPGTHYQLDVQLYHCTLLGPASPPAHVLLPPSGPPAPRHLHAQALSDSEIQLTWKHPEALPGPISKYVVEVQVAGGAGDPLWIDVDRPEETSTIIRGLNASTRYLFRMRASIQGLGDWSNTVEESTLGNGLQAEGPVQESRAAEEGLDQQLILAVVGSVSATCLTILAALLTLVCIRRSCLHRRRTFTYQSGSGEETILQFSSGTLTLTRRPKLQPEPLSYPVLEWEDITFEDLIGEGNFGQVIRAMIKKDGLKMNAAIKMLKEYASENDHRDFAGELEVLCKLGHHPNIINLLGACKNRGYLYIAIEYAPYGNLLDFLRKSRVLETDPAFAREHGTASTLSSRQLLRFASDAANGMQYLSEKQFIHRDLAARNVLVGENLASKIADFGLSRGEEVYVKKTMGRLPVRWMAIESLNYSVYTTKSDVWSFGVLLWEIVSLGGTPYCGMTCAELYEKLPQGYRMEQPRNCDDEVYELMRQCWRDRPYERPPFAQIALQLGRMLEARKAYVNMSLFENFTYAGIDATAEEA
Ribosomal protein S6 kinase alpha-5 (Homo sapiens), sequence (O75582 whole entry, looked up): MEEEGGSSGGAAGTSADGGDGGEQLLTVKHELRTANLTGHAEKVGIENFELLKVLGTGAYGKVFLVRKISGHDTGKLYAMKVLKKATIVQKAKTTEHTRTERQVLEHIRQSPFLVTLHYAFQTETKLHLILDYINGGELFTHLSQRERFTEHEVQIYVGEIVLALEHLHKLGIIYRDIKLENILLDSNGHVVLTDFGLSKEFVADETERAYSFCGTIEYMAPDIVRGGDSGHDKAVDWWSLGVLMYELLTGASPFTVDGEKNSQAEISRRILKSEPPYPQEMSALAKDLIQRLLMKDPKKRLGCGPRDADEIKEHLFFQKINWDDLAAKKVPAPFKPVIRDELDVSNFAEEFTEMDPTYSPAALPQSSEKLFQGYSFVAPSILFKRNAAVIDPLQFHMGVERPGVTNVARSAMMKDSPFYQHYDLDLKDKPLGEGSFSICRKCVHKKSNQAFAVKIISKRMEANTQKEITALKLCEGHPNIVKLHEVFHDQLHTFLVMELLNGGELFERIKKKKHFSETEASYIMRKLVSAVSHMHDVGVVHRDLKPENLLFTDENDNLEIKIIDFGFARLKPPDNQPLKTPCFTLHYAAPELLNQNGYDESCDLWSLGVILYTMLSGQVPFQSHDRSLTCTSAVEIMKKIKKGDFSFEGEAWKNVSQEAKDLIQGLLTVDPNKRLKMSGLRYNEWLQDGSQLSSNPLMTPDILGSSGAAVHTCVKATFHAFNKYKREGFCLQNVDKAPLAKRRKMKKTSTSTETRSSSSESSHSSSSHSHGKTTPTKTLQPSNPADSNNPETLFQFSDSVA
5-hydroxytryptamine receptor 6 (Homo sapiens), sequence (P50406 whole entry): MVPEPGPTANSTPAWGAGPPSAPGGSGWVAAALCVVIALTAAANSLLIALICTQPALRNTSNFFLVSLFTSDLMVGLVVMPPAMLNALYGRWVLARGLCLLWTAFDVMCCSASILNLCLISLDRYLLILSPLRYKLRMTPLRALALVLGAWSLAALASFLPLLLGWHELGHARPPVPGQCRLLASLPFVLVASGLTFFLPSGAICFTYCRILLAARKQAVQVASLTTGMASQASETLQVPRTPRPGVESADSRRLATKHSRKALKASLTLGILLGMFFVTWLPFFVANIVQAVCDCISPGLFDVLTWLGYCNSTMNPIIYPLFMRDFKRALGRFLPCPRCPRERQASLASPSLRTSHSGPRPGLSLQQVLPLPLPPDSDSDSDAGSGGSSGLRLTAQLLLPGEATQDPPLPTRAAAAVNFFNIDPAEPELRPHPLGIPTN
Cyclin-dependent kinase 8, sequence (P49336 whole entry): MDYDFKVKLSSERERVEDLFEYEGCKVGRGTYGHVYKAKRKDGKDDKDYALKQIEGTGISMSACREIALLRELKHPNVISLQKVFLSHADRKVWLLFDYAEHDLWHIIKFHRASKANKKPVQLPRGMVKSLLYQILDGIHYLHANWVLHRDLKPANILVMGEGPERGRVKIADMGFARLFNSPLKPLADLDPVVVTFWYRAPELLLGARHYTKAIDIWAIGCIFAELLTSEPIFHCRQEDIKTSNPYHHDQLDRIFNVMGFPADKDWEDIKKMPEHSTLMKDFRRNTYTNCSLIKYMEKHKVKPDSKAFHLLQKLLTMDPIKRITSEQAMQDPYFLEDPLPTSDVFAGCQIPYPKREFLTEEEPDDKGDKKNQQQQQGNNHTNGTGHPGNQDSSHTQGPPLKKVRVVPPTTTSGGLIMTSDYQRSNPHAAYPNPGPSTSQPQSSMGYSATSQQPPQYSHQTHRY
Ephrin type-A receptor 7 (Homo sapiens), sequence (Q15375 28-998 limits assumed): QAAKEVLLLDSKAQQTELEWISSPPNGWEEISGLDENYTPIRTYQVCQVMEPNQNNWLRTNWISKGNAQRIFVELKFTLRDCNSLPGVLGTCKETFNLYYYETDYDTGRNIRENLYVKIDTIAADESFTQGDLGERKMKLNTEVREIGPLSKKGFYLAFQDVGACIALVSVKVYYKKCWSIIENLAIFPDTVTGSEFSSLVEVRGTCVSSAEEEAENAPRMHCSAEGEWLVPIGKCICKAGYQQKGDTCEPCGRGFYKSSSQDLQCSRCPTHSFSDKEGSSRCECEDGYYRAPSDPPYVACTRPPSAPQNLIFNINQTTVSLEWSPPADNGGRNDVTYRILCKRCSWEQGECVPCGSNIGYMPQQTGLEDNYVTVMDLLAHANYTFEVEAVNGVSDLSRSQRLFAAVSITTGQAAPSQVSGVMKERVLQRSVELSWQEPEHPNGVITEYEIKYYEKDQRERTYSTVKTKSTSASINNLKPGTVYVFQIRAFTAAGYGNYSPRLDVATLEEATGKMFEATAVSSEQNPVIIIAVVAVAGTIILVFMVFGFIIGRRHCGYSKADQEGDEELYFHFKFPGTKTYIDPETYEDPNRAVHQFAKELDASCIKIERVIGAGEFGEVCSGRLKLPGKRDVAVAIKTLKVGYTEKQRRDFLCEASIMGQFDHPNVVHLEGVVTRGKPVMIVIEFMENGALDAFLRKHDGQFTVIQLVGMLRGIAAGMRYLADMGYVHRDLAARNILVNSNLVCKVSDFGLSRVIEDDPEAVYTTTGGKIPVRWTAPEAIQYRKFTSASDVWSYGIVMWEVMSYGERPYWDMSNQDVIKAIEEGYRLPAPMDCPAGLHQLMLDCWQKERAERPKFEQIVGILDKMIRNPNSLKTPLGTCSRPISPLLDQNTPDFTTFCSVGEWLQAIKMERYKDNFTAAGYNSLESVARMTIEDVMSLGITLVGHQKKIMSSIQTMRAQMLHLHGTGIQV
Serine/threonine-protein kinase 32A (Homo sapiens), sequence (Q8WU08 whole entry): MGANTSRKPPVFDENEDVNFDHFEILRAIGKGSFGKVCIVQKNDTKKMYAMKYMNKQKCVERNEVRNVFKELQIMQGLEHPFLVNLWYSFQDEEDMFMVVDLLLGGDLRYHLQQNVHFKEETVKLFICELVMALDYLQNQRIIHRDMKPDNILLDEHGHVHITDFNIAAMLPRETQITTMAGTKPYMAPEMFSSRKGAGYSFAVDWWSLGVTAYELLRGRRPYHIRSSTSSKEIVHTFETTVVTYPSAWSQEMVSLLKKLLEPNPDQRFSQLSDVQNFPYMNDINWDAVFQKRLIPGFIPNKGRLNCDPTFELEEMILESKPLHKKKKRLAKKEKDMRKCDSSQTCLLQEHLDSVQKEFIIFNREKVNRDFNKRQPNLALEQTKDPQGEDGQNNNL
Serine/threonine-protein kinase NIM1, sequence (Q8IY84 whole entry, canonical isoform): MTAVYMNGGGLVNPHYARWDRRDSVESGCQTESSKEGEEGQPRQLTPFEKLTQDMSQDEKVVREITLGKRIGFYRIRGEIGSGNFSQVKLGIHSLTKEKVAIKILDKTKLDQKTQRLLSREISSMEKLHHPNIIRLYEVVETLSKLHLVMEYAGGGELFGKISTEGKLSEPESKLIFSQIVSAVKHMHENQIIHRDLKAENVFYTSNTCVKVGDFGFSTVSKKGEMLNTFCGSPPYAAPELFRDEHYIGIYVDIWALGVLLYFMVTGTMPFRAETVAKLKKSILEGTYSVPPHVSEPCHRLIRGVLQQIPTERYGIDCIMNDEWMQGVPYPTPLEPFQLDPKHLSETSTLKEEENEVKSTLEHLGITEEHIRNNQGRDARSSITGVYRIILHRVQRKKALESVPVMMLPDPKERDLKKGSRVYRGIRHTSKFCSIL

C=CC(=O)Nc1cc(-n2c(=O)ccc3cnc4ccc(-c5ccc(NS(C)(=O)=O)cc5)cc4c32)ccc1C
% of control ([1]; at 1 µM): 100%
% of control ([1]; at 10 µM): 100%
% of control ([2]; at 1 µM): 63%
% of control ([2]; at 10 µM): 77%
% of control ([3]; at 1 µM): 90%
% of control ([3]; at 10 µM): 86%
% of control ([4]; at 1 µM): 100%
% of control ([4]; at 10 µM): 100%
% of control ([5]; at 1 µM): 100%
% of control ([5]; at 10 µM): 73%
% of control ([6]; at 1 µM): 100%
% of control ([6]; at 10 µM): 100%
% of control ([7]; at 1 µM): 100%
% of control ([7]; at 10 µM): 76%
% of control ([8]; at 1 µM): 100%
% of control ([8]; at 10 µM): 100%
% of control ([9]; at 1 µM): 100%
% of control ([9]; at 10 µM): 100%

Nc1cnc(N2CCc3cc(S(=O)(=O)Nc4c(F)cc(Cl)cc4F)cc(N4CCCC4=O)c32)nc1 [TP-020n]
% of inhibition [10]: -26.7%

Cn1cc(-n2cnc3c(NCc4nc5cc(Cl)c(Cl)cc5[nH]4)nc(N4CCOCC4)nc32)cn1
% of inhibition [11]: -69.8%

Cc1cc([C@@H](C)Nc2ccccc2C(=O)O)c2nc(N3CCOCC3)cc(=O)n2c1 [AZD-6482]
% of control [12]: 100%
% of control [13]: 100%

CCc1cccc(CC)c1NC(=O)c1nn(C)c2c1CCc1cnc(Nc3ccc(C(=O)NC4CCN(C)CC4)cc3OC(F)(F)F)nc1-2
IC50 [14]: > 10 µM

N#Cc1cccc(-c2c[nH]c3ncnc(N4CCOCC4)c23)c1
% of control [15]: 100%
% of control [16]: 100%
% of control [17]: 80%

O[C@H]1CC[C@H](Nc2ncc3nc(Nc4c(F)cc(F)cc4F)n([C@H]4CCOC4)c3n2)CC1
% of control [18]: 100%

CN(C)CCOc1ccc(-c2nc(-c3ccncc3)c(-c3ccc4c(c3)CC/C4=N\O)[nH]2)cc1
% of control [19]: 100%

CCC(=O)N1CCN(c2ccc(-n3c(=O)ccc4cnc5ccc(-c6cnc7ccccc7c6)cc5c43)cc2C(F)(F)F)CC1
% of control [20]: 100%
% of control [21]: 89%
